# Data from ChEMBL document CHEMBL1681741, “SAR studies on dihydropyrimidinone antibiotics” (Bioorg Med Chem Lett, 2011).
# Tests used:
# [1] = Inhibition of protein translation in rabbit reticulocytes; assay type: functional, cell-based, Oryctolagus cuniculus
# [2] = test system: Staphylococcus aureus; experiment: Antimicrobial activity against methicillin-resistant Staphylococcus aureus by NCCLS method; assay type: functional
# [3] = test system: Escherichia coli; experiment: Inhibition of protein translation in Escherichia coli S30 cell extract; assay type: functional
# [4] = Selectivity index, ratio of IC50 for protein translation inhibition in Escherichia coli S30 cell extract to IC50 for protein translation inhibition in rabbit reticulocytes; assay type: functional
# [5] = test system: Staphylococcus aureus; experiment: Antimicrobial activity against methicillin-resistant Staphylococcus aureus in iv dosed mouse septicemia model; assay type: functional; settings: read-out: PD50
# [6] = test system: Staphylococcus aureus; experiment: Antimicrobial activity against methicillin-resistant Staphylococcus aureus in mouse septicemia model; assay type: functional
SMILES,IC50 [1],MIC [2],IC50 [3],Selectivity ratio [4],ED50 [5],MIC [6]
CN(C(=O)C[C@@H](N)CCCNC(=N)N)C1CNC(N2CCNC2=O)=NC1=O (mixture of isomers),> 500 µM,> 500 µg/mL,> 500 µM,–,–,–
CN(C(=O)C[C@@H](N)C[C@H]1CCN(C(=N)N)C1)C1CNC(NC(N)=O)=NC1=O (mixture of isomers),0.45 µM,8 µg/mL,0.17 µM,2.6,1.5 mg/kg,16 µg/mL
CN(C(=O)C[C@@H](N)CCC(=O)NC(=N)N)C1CNC(NC(N)=O)=NC1=O (mixture of isomers),7 µM,> 500 µg/mL,226 µM,0.03,–,–
CN(C(=O)C[C@@H](N)CCCNC(=N)N)C1CN=C(NC(N)=O)NC1 (mixture of isomers),–,> 256 µg/mL,121 µM,–,–,–
CN(C(=O)C[C@@H](N)CC1CCN(C(=N)N)CC1)C1CNC(NC(N)=O)=NC1=O (mixture of isomers),0.75 µM,16 µg/mL,0.11 µM,6.8,2.4 mg/kg,16 µg/mL
CN(C(=O)C[C@@H](N)CCCN=C(N)N)C1CN=C(NC(N)=O)NC1=O (mixture of isomers),0.2 µM,8 µg/mL,–,0.67,0.7 mg/kg,12.8 µg/mL
CCN(C(=O)C[C@@H](N)CCCNC(=N)N)C1CNC(NC(N)=O)=NC1=O (mixture of isomers),45 µM,256 µg/mL,1.8 µM,25,–,–
CC/N=C(/N)NCCC[C@H](N)CC(=O)N(C)C1CN=C(NC(N)=O)NC1=O (mixture of isomers),27.4 µM,> 256 µg/mL,2.4 µM,–,–,–
CC(=O)N(C)C1=NC(=O)C(N(C)C(=O)C[C@@H](N)CCCNC(=N)N)CN1 (mixture of isomers),21 µM,64 µg/mL,6.8 µM,3.1,–,–
CN(C(=O)C[C@@H](N)c1cccc(NC(=N)N)c1)C1CNC(NC(N)=O)=NC1=O (mixture of isomers),1.9 µM,256 µg/mL,0.15 µM,10,–,–
CN(C(=O)C[C@@H](N)C[C@@H]1CCNC1)C1CNC(NC(N)=O)=NC1=O (mixture of isomers),3.4 µM,128 µg/mL,3.9 µM,0.9,–,–
CN(C(=O)C[C@@H](N)CCCN1CCNC1=N)C1CNC(NC(N)=O)=NC1=O (mixture of isomers),35 µM,128 µg/mL,4.2 µM,8.3,–,–
CN[C@H](CC(C)C)C(=O)N[C@H]1C(=O)N[C@@H](CC(N)=O)C(=O)N[C@H]2C(=O)N[C@H]3C(=O)N[C@H](C(=O)N[C@H](C(=O)O)c4cc(O)cc(O)c4-c4cc3ccc4O)[C@H](O)c3ccc(c(Cl)c3)Oc3cc2cc(c3O[C@@H]2O[C@H](CO)[C@@H](O)[C@H](O)[C@H]2O[C@H]2C[C@](C)(N)[C@H](O)[C@H](C)O2)Oc2ccc(cc2Cl)[C@H]1O [VANCOMYCIN],–,–,–,–,9.6 mg/kg,0.8 µg/mL
CN(C(=O)C[C@@H](N)CCCNC(=N)N)c1ccc(NC(N)=O)[nH]c1=O (mixture of isomers),56 µM,> 500 µg/mL,> 500 µM,–,–,–
CN(CC1CNC(NC(N)=O)=NC1=O)C(=O)C[C@@H](N)CCCNC(=N)N (mixture of isomers),56 µM,> 500 µg/mL,51 µM,1.1,–,–
CN(C)C(=N)NCCC[C@H](N)CC(=O)N(C)C1CNC(NC(N)=O)=NC1=O (mixture of isomers),20.6 µM,64 µg/mL,4.2 µM,4.9,–,–
CN(C(=O)C[C@@H](N)CCCCCN)C1CNC(NC(N)=O)=NC1=O (mixture of isomers),10 µM,16 µg/mL,5 µM,2,–,–
CN(C(=O)C[C@@H](N)CC1CCNCC1)C1CNC(NC(N)=O)=NC1=O (mixture of isomers),6.6 µM,64 µg/mL,6.6 µM,1,–,–
CN(C)C(=O)NC1=NC(=O)C(N(C)C(=O)C[C@@H](N)CCCNC(=N)N)CN1 (mixture of isomers),19.7 µM,> 500 µg/mL,8.8 µM,3.4,–,–

SMILES,IC50 [1],MIC [2],IC50 [3],Selectivity ratio [4],ED50 [5],MIC [6]
C/N=C(/N)N1CCC(C[C@H](N)CC(=O)N(C)C2CNC(NC(N)=O)=NC2=O)CC1 (mixture of isomers),53 µM,64 µg/mL,3.6 µM,14.7,–,–
CN(C(=O)C[C@@H](N)CCCN)C1CN=C(NC(N)=O)NC1=O (mixture of isomers),< 5 µM,64 µg/mL,9 µM,<0.6,–,–
C/N=C(/N)NCCC[C@H](N)CC(=O)N(C)C1CN=C(NC(N)=O)NC1=O (mixture of isomers),1.3 µM,8 µg/mL,0.2 µM,6.5,3.3 mg/kg,32 µg/mL
CN(C(=O)C[C@@H](N)Cc1ccc(C(=N)N)cc1)C1CNC(NC(N)=O)=NC1=O (mixture of isomers),12.3 µM,512 µg/mL,0.51 µM,8.2,–,–
CN(C(=O)C[C@@H](N)CCCCN)C1CN=C(NC(N)=O)NC1=O (mixture of isomers),39.8 µM,64 µg/mL,6.5 µM,6,–,–
CN(C(=O)C[C@H](CCCCN)NC=O)C1CNC(NC(N)=O)=NC1=O (mixture of isomers),> 500 µM,> 500 µg/mL,> 500 µM,–,–,–
CC(=O)NC(=N)NCCC[C@H](N)CC(=O)N(C)C1CNC(NC(N)=O)=NC1=O (mixture of isomers),–,> 256 µg/mL,106 µM,–,–,–
CN(C(=O)C[C@@H](N)CCCN/C(N)=N\O)C1CNC(NC(N)=O)=NC1=O (mixture of isomers),23.2 µM,64 µg/mL,8.2 µM,2.8,–,–
CN(C(=O)C[C@@H](N)C[C@H]1CCNC1)C1CNC(NC(N)=O)=NC1=O (mixture of isomers),0.6 µM,64 µg/mL,2 µM,0.3,–,–
CCC(=O)NC1=NC(=O)C(N(C)C(=O)C[C@@H](N)CCCNC(=N)N)CN1 (mixture of isomers),< 5 µM,16 µg/mL,< 5 µM,–,–,–
CC(=O)NC1=CC(=O)C(N(C)C(=O)C[C@@H](N)CCCNC(=N)N)CN1 (mixture of isomers),> 500 µM,> 500 µg/mL,> 500 µM,–,–,–
CN1CC(N(C)C(=O)C[C@@H](N)CCCNC(=N)N)C(=O)N=C1NC(N)=O (mixture of isomers),> 500 µM,> 500 µg/mL,> 500 µM,–,–,–
CC(=O)NC1=NC(=O)C(N(C)C(=O)C[C@@H](N)CCCNC(=N)N)CN1 (mixture of isomers),0.2 µM,8 µg/mL,0.1 µM,2,–,–
CN(C(=O)C[C@@H](N)CCCNC(N)=O)C1CNC(NC(N)=O)=NC1=O (mixture of isomers),> 500 µM,> 500 µg/mL,> 500 µM,–,–,–
CN1C(=O)C(N(C)C(=O)C[C@@H](N)CCCNC(=N)N)CN=C1NC(N)=O (mixture of isomers),> 500 µM,> 500 µg/mL,> 500 µM,–,–,–
CN(C(=O)C[C@@H](N)C1CCN(C(=N)N)CC1)C1CNC(NC(N)=O)=NC1=O (mixture of isomers),0.23 µM,16 µg/mL,0.18 µM,1.3,–,–
CN[C@@H](CCCCN)CC(=O)N(C)C1CNC(NC(N)=O)=NC1=O (mixture of isomers),5 µM,128 µg/mL,25 µM,0.2,–,–
C/N=C(/NC)NCCC[C@H](N)CC(=O)N(C)C1CNC(NC(N)=O)=NC1=O (mixture of isomers),26.3 µM,256 µg/mL,1.3 µM,20,–,–
